Assay results reported in patent publication US12365674B2, “Inhibitors of histone deacetylase useful for the treatment or prevention of HIV infection” (Merck Sharp & Dohme LLC, priority 2019, dated 2025).
Where two headings read alike, the source gives them in different places.

Test system: KARN cells (Jurkat 2C4)
Experiment: KARN assay (luciferase induction in latently HIV-infected Jurkat 2C4 cells)
Type: cell-based
Settings: ~20 hr, luciferase induction relative to 2 μM SAHA (100%)
Experimental: KARN cells (Jurkat 2C4) were licensed from the laboratory of Dr. John Karn, Case Western Reserve University, School of Medicine. The details regarding this cell line are published (Pearson, R., Kin, Y. K., Hokello, J., Lassen, K., Friedman, J., Tyagi, M., Karn, J., 2008, J. Virol. 82:12291-12303). The cells were grown in a T175 flask (Thermo Fisher, catalog number 159910) in RPMI 1640 containing L-glutamine and phenol red (Life Technologies, catalog number 11875-085), 5% heat inactivated fetal bovine serum (FBS; Life Technologies, catalog number 10100-147) and 100 μg/ml Penicillin-Streptomycin (Life Technologies, catalog number 15140-122) at 37° C. An atmosphere of 5% CO2 and 90% humidity was used for all culture work. Cells were split and reseeded into T175 flasks at a density of 0.2×10^6 cells/ml, in 40 ml of media, every 3-4 days.
Day 1: After the 3-4 day growth period, the cells were transferred from the T175 flask to a 50 ml conical tube and gently pelleted at 1000 rpm for 5 minutes. The supernatant was removed and the cells gently resuspended in assay media RPMI 1640 medium containing L-glutamine but without Phenol Red (Life Technologies, catalog number 11835-030), 5% FBS and 100 μg/ml Penicillin-Streptomycin, and then reseeded such that the original flask is now divided into two T175 flasks. These flasks were returned to the incubator.
Day 2: Cell Preparation: The next day, the cells were transferred from each T175 flask to an individual 50 ml conical tube and gently pelleted at 1000 rpm for 5 minutes. The cells were gently resuspended in assay media (30 ml) and pelleted again. The cell pellets were each resuspended in 30 ml of RPMI 1640 medium containing L-glutamine but without Phenol Red, 100 μg/ml Penicillin-Streptomycin and containing either 0.1% or 5% normal human serum (NHS; Biospecialty, Colmar, PA, catalog number 115-00 Anticoagulant free). The cells were counted using the ViCell (Beckman Coulter, Brea, CA) and diluted as necessary. A Multidrop (Combi, Thermo Scientific, Waltham, MA) with a sterile head was used to seed the cells into the wells of a 384-well solid black plate with lid (Perkin Elmer, Waltham, MA, catalog number 6007660) at 4000 cells/30 μl/well for the 5% NHS assay media and 6000 cells/30 μl/well for 0.1% NHS assay. The plates were covered and returned to the incubator prior to compound addition.
Compound Preparation: Solutions of control inhibitor suberoylanilide hydroxamic acid (SAHA; Sigma, catalog number SML0061) and test compounds in 100% DMSO were titrated into 384-well polypropylene plates (Labcyte, San Jose, CA, catalog number P-05525) using a 20-point dose response and 2-fold dilutions. The reference compounds, DMSO and SAHA were then added to the compound plate. Using the Access system (Labcyte), 120 nl of these inhibitor and control solutions were added to the individual wells of the plates containing the cells, and the plates were then returned to the incubator for ˜20 hr (range from 18-24 hr). The final high concentration for SAHA and the test compounds in the assays was 40 μM. The final DMSO concentration in all wells was 0.4%. The minimal induction reference compound used was DMSO and the maximal induction reference compound used was SAHA (2 μM final concentration in the assay).
Day 3: The luciferase detection reagent was prepared by transferring the contents of one bottle of Steady-Glo buffer to one bottle of Steady-Glo substrate (Steady-Glo Luciferase Assay System, Promega, Madison, […], catalog number E2520), followed by gently mixing until the substrate was thoroughly dissolved and the solution was equilibrated to room temperature. The cell culture assay plates were removed from the incubator and brought to room temperature (15 min). The Steady-Glo Reagent was added to the plates (30 μl/well), which were then covered with a black lid and incubated for 10 minutes at room temperature. […]

[1] = 0.1% normal human serum, 6000 cells/well, read-out: Karn 0.1% NHS
[2] = 5% normal human serum, 4000 cells/well, read-out: Karn 5% NHS

Row | SMILES | EC50 [1] | EC50 [2]
1 | CCC(=O)CCCOC[C@H](NC(=O)[C@H]1CC12CCN(CC)CC2)c1ncc(-c2cc3ccccc3nc2OC)[nH]1 [Compound 7, (1S)-6-ethyl-N-{(1R)-1-[5-(2-methoxyquinolin-3-yl)-1H-imidazol-2-yl]-2-[(4-oxohexyl)oxy]ethyl}-6-azaspiro[2.5]octane-1-carboxamide] | 2350 nM | 3500 nM
2 | CN(C)CC(=O)N[C@@H](COCCCC(=O)c1ccon1)c1[nH]c(-c2ccc(F)cc2)nc1Cl [Compound 17, N-[(1R)-1-[4-chloro-2-(4-fluorophenyl)-1H-imidazol-5-yl]-2-(4-isoxazol-3-yl-4-oxobutoxy)ethyl]-N~2~,N~2~- dimethylglycinamide] | 1490 nM | 2420 nM
3 | COc1nc2ccccc2cc1-c1cnc([C@H](COCCCC(=O)c2ccon2)NC(=O)CN(C)C)[nH]1 [Compound 14, N-{(1R)-2-(4-isoxazol-3-yl-4-oxobutoxy)-1-[5-(2-methoxyquinolin-3-yl)-1H-imidazol-2-yl]ethyl}-N~2~,N~2~- dimethylglycinamide] | 83.8 nM | 252 nM
4 | CNC(=O)C(=O)CCCOC[C@H](NC(=O)C12CCN(CC1)CC2)c1ncc(-c2cc3ccccc3nc2OC)[nH]1 [Compound 9, N-[(1R)-1-[5-(2-methoxyquinolin-3-yl)-1H-imidazol-2-yl]-2-{[5-(methylamino)-4,5-dioxopentyl]oxy}ethyl]-1-azabicyclo[2.2.2]octane-4-carboxamide] | 232 nM | 466 nM
5 | CN1CCC2(CC1)C[C@@H]2C(=O)N[C@@H](COCCCC(=O)c1ccon1)c1[nH]c(-c2ccc(F)cc2)nc1Cl [Compound 18, (1S)-N-[(1R)-1-[4-chloro-2-(4-fluorophenyl)-1H-imidazol-5-yl]-2-(4-isoxazol-3-yl-4-oxobutoxy)ethyl]-6-methyl-6-azaspiro[2.5]octane-1-carboxamide] | 77.7 nM | 109 nM
6 | CN1CC(C(=O)N[C@@H](COCCCC(=O)c2ccon2)c2[nH]c(-c3ccc(F)cc3)nc2Cl)C1 [Compound 16, N-[(1R)-1-[4-chloro-2-(4-fluorophenyl)-1H-imidazol-5-yl]-2-(4-isoxazol-3-yl-4-oxobutoxy)ethyl]-1-methylazetidine-3-carboxamide] | 979 nM | 1100 nM
7 | COc1nc2ccccc2cc1-c1cnc([C@H](COCCCC(=O)c2ncco2)NC(=O)C23CCN(CC2)CC3)[nH]1 [Compound 12, N-{(1R)-1-[5-(2-methoxyquinolin-3-yl)-1H-imidazol-2-yl]-2-[4-(1,3-oxazol-2-yl)-4-oxobutoxy]ethyl}-1-azabicyclo[2.2.2]octane-4-carboxamide] | 252 nM | 562 nM
8 | COc1nc2ccccc2cc1-c1cnc([C@H](COCCCC(=O)c2ncco2)NC(=O)c2cncs2)[nH]1 [Compound 10, N-{(1R)-1-[5-(2-methoxyquinolin-3-yl)-1H-imidazol-2-yl]-2-[4-(1,3-oxazol-2-yl)-4-oxobutoxy]ethyl}-1,3-thiazole-5-carboxamide] | 295 nM | 1500 nM
9 | COc1nc2ccccc2cc1-c1cnc([C@@H](N)COCCCC(=O)c2ncco2)[nH]1 [Compound 1, (R)-4-(2-amino-2-(5-(2-methoxyquinolin-3-yl)-1H-imidazol-2-yl)ethoxy)-1-(oxazol-2-yl)butan-1-one] | 11700 nM | 
10 | CCC(=O)CCCOC[C@H](NC(=O)C12CCN(CC1)CC2)c1ncc(-c2cc3ccccc3nc2OC)[nH]1 [Compound 6, N-{(1R)-1-[5-(2-methoxyquinolin-3-yl)-1H-imidazol-2-yl]-2-[(4-oxohexyl)oxy]ethyl}-1-azabicyclo[2.2.2]octane-4-carboxamide] | 8970 nM | 14500 nM
11 | COc1nc2ccccc2cc1-c1cnc([C@H](COCCCC(=O)c2ncco2)NC(=O)[C@H]2CC23CCN(C)CC3)[nH]1 [Compound 11, (1S)-N-{(1R)-1-[5-(2-methoxyquinolin-3-yl)-1H-imidazol-2-yl]-2-[4-(1,3-oxazol-2-yl)-4-oxobutoxy]ethyl}-6-methyl-6-azaspiro[2.5]octane-1-carboxamide] | 59.8 nM | 218 nM
12 | COc1nc2ccccc2cc1-c1cnc([C@H](COCCCC(=O)c2ncco2)NC(=O)CN(C)C)[nH]1 [Compound 13, N-{(1R)-1-[5-(2-methoxyquinolin-3-yl)-1H-imidazol-2-yl]-2-[4-(1,3-oxazol-2-yl)-4-oxobutoxy]ethyl}-N~2~,N~2~- dimethylglycinamide] | 424 nM | 854 nM
13 | CNC(=O)C(=O)CCCOC[C@H](NC(=O)c1cncs1)c1ncc(-c2cc3ccccc3nc2OC)[nH]1 [Compound 8, N-[(1R)-1-[5-(2-methoxyquinolin-3-yl)-1H-imidazol-2-yl]-2-{[5-(methylamino)-4,5-dioxopentyl]oxy}ethyl]-1,3-thiazole-5-carboxamide] | 80.2 nM | 408 nM
14 | Cc1ccc2cc(-c3cnc([C@H](CSCCCC(=O)c4ncco4)NC(=O)[C@H]4CC45CCN(C)CC5)[nH]3)ccc2n1 [Compound 21, (1S)-6-methyl-N-[(1R)-1-[5-(2-methylquinolin-6-yl)-1H-imidazol-2-yl]-2-{[4-(1,3-oxazol-2-yl)-4-oxobutyl]sulfanyl}ethyl]-6-azaspiro[2.5]octane-1-carboxamide] | 60.7 nM | 64.4 nM
15 | COc1cc2nc(C)ccc2cc1-c1cnc([C@H](COCCCC(=O)c2cc(C)on2)NC(=O)[C@H]2CC23CCN(C)CC3)[nH]1 [Compound 20, (1S)-N-{(1R)-1-[5-(7-methoxy-2-methylquinolin-6-yl)-1H-imidazol-2-yl]-2-[4-(5-methylisoxazol-3-yl)-4-oxobutoxy]ethyl}-6-methyl-6-azaspiro[2.5]octane-1-carboxamide] | 40.5 nM | 55.1 nM
16 | COc1cc2nc(C)ccc2cc1-c1cnc([C@H](COCCCC(=O)c2cc(C)on2)NC(=O)C2CN(C)C2)[nH]1 [Compound 19, N-{(1R)-1-[5-(7-methoxy-2-methylquinolin-6-yl)-1H-imidazol-2-yl]-2-[4-(5-methylisoxazol-3-yl)-4-oxobutoxy]ethyl}-1-methylazetidine-3-carboxamide] | 374 nM | 449 nM
17 | CN1CC(C(=O)N[C@@H](COCCCC(=O)c2ccon2)c2ncc(-c3ccccc3F)[nH]2)C1 [Compound 15, N-[(1R)-1-[5-(2-fluorophenyl)-1H-imidazol-2-yl]-2-(4-isoxazol-3-yl-4-oxobutoxy)ethyl]-1-methylazetidine-3-carboxamide] | 539 nM | 548 nM
